How the values were obtained:
[1] = test system: androgen receptor; test: androgenic activity rating (procedures described above); set-up: key: +: androgenic activity found; ++: high androgenic activity; +++: excellent androgenic activity; conditions: rated according to scheme; test procedure not specified
Description: (§1) Androgenic activity can be measured in various ways. Thus, the potency of androgens can be determined in vitro using the cytoplasmic androgen receptor from human breast tumor cells (MCF-7 cell line); see Bergink, E. W. et al, Comparison of the receptor binding properties of nandrolone and testosterone under in vitro and in vivo conditions, J. Steroid Biochem. 22, 831-836 (1985). It is also possible to use Chinese hamster ovary (CHO) cells transfected with the human androgen receptor (incubation time 16 h, temperature 4° C.) and compared with the affinity of 5α-dihydrotestosterone [according to the procedure described by Bergink, E. W. et al, J. Steroid Biochem. 19, 1563-1570 (1983)]. The transactivative androgen activity of the compounds of the invention can be measured, e.g. in Chinese hamster ovary cells (CHO) transfected with the human androgen receptor (hAR), in combination with a mouse mammary tumor virus (MMTV), and luciferase […] gene (incubation time 16 h, temperature 37° C.) and compared with the activity of […] [according to the procedure described by Schoonen, W. G. E. J. et al, Analyt. Biochem. 261, 222-224 (1998)]. For the in vivo potency determination of androgens the classical Hershberger test can be used. In this test the androgenic (increase in prostate weight) and anabolic activities [increase of the musculus levator ani (MLA)] of a compound are tested in immature castrated rats after daily administration for 7 days; see Hershberger, L. G. et al, Myotrophic activity of 19-Nortestosteronie and other steroids determined by modified levator ani muscle method, Proceedings of the society for experimental biology and medicine 83, 175-180 (1953). Additionally, the effect of an androgenic compound on LH suppression can be tested in mature castrated rats according to Kumar, N. et al, The biological activity of 7alpha-methyl-19-nortestosterone is not amplified in male reproductive tract as is that of testosterone, Endocrinology 130, 3677-3683 (1992).
The compounds according to the invention were tested for androgenic activity (the procedures for which have been described above) and rated according to the following scheme: […]

[2] = biological target: T1, human androgen receptor (hAR) (Homo sapiens, UniProt P10275); test: transactivative androgen activity in CHO cells transfected with hAR, MMTV and luciferase reporter gene; format: cell-based; conditions: MMTV, luciferase, incubation 16 h, 37° C., compared with the activity of dihydrotestosterone
T1 construct: expressed in transfected cells; host or cells: Chinese hamster ovary (CHO) cells
T1 sequence (P10275 1-920): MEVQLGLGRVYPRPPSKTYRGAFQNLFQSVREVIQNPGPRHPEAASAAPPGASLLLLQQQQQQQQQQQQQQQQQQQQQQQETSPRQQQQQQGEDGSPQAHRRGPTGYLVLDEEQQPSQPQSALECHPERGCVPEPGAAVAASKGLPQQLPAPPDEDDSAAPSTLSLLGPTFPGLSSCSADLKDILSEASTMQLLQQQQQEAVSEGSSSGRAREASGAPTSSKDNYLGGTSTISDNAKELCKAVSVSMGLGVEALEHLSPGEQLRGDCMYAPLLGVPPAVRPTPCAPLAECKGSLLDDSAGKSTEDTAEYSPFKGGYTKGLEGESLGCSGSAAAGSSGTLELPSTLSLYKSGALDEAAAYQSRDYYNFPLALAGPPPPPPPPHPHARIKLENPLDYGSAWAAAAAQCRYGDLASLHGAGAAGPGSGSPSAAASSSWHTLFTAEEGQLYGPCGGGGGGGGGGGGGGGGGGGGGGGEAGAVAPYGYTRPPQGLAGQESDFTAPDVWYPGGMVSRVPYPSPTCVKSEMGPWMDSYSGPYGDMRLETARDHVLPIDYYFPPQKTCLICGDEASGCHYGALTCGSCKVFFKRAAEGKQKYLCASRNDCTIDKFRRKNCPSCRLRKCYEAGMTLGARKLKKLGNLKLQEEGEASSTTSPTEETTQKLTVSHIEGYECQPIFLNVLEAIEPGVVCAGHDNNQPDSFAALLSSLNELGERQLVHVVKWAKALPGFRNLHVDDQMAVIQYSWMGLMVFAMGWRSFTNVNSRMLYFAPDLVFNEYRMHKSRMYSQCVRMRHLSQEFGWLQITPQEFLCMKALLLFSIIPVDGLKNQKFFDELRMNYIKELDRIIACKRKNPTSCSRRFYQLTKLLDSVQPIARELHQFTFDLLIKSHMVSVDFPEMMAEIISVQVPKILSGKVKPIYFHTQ
Description: as §1, with “Biochem. 261, 222-224 (1998)]. For the in vivo potency determination of androgens the classical Hershberger test can be used.” left out, “Additionally, the effect of an androgenic compound on LH suppression can be tested in mature castrated rats according to Kumar, N. et al, The biological activity of 7alpha-methyl-19-nortestosterone is not amplified in male reproductive tract as is that of testosterone, Endocrinology 130, 3677-3683 (1992).” left out
The transactivative androgen activity was determined in a comparison of the following compounds: the compound of Example 1 according to the invention, i.e. (7α,14β,16α,17α)-16,17-dihydro-17-(hydroxymethyl)-7-methyl-3′H-cyclopropa[16,17]estra-4,16-dien-3-one, and compounds denoted C1 and C2, not according to the invention, which respectively are (7α,14β,16β,17α)-17-(hydroxymethyl)-7,16-dimethylestr-4-en-3-one and (7α,14β,17α)-17-(hydroxymethyl)-7,17-dimethylestr-4-en-3-one as disclosed in WO 00/53619.

SMILES | Result (androgenic activity) [1] | Transactivative androgen activity [2]
C[C@]12CC[C@H]3[C@@H](CC[C@H]4CC(=O)CC[C@@H]43)[C@H]1C[C@@H]1C[C@@]12CO [Example 7, (5α,14β,16α,17α)-16,17-Dihydro-17-(hydroxymethyl)-3′H-cyclopropa[16,17]estr-16-en-3-one] | ++ | –
C[C@@H]1CC2=C/C(=N\O)CC[C@@H]2[C@H]2CC[C@@]3(C)[C@H](C[C@@H]4C[C@@]43CO)[C@@H]21 [Example 5b, (3Z,7α,14β,16α,17α)-16,17-dihydro-3-(hydroxyimino)-7-methyl-3′H-cyclopropa[16,17]estra-4,16-diene-17-methanol] | (prodrug) | –
C[C@@H]1CC2=CC(=O)CC[C@@H]2[C@H]2CC[C@@]3(C)[C@H](C[C@@H]4C[C@@]43[C@H](C)O)[C@@H]21 [Example 2, (7α,14β,16α,17α,20S)-16,17-Dihydro-20-hydroxy-7-methyl-3′H-cyclopropa[16,17]-19-norpregna-4,16-dien-3-one] | ++ | –
CC[C@H](O)[C@]12C[C@H]1C[C@@H]1[C@H]3[C@H](CC[C@@]12C)[C@H]1CCC(=O)C=C1C[C@H]3C [Example 3a, [7α,14β,16α,17α(20S)]-16,17-Dihydro-20-(1-hydroxypropyl)-7-methyl-3′H-cyclopropa [16,17]estra-4,16-dien-3-one] | ++ | –
C[C@]12CC[C@H]3[C@@H](CCC4=CC(=O)CC[C@@H]43)[C@H]1C[C@@H]1C[C@@]12CO [Example 6, (14β,16α,17α)-16,17-Dihydro-17-(hydroxymethyl)-3′H-cyclopropa[16,17]estra-4,16-dien-3-one] | ++ | –
C#C[C@H](O)[C@]12C[C@H]1C[C@@H]1[C@H]3[C@H](CC[C@@]12C)[C@H]1CCC(=O)C=C1C[C@H]3C [Example 3b, [7α,14β,16α,17α(20S)]-16,17-Dihydro-20-(1-hydroxy-2-propynyl)-7-methyl-3 ′H-cyclopropa[16,17]estra-4,16-dien-3-one] | ++ | –
C[C@@H]1CC2=CC(=O)CC[C@@H]2[C@H]2CC[C@@]3(C)[C@H](C[C@@H]4C[C@@]43CO)[C@@H]21 [Example 1, (7α,14β,16α,17α)-16,17-Dihydro-17-(hydroxymethyl)-7-methyl-3′H-cyclopropa[16,17]estra-4,16-dien-3-one] | +++ | 263
C[C@@H]1CC2=CC(=O)CC[C@@H]2[C@H]2CC[C@@]3(C)[C@H](C[C@H](C)[C@H]3CO)[C@@H]21 [Example C1, (7α,14β,16β,17α)-17-(hydroxymethyl)-7,16-dimethylestr-4-en-3-one] | – | 72
C[C@@H]1CC2=C[C@@H](O)CC[C@@H]2[C@H]2CC[C@@]3(C)[C@H](C[C@@H]4C[C@@]43CO)[C@@H]21 [Example 4, (3β,7α,14β,16α,17α)-16,17-Dihydro-17-(hydroxymethyl)-7-methyl-3′H-cyclopropa[16,17]estra-4,16-dien-3-ol] | (prodrug) | –
C[C@@H]1CC2=C/C(=N/O)CC[C@@H]2[C@H]2CC[C@@]3(C)[C@H](C[C@@H]4C[C@@]43CO)[C@@H]21 [Example 5a, (3E,7α,14β,16α,17α)-16,17-Dihydro-3-(hydroxyimino)-7-methyl-3′H-cyclopropa[16,17]estra-4,16-diene-17-methanol] | (prodrug) | –
CC1CC2=CC(=O)CCC2C2CCC3(C)C(CCC3(C)CO)C12 (stereo not drawn) [Example C2, (7α,14β,17α)-17-(hydroxymethyl)-7,17-dimethylestr-4-en-3-one] | – | 22

Reference: patent US6949531B2, “14 β, 16, 17-methylene steroids as novel androgens” (Akzo Nobel N.V., priority 2000, dated 2005)
